Measured values: US20040147500A1, “Injectable galenic formulation for use in a diagnosis or a photodynamic therapy and method for preparing same” (priority 2001, published 2004)

Experiments:
[1] = system: mice (OF), rats (Sprague Dawley), monkeys (Cynomolgus); format: in vivo; settings: intravenous, provided the injections were made slowly
Experimental: 1—Mice (OF, of a weight varying from 25 to 35 grams): 10 animals of each sex for each dose (2×25, 2×50, 2×75 and 1×100 mg/kg).The product was injected into the caudal vein.
2—Rats (Sprague Dawley, of a weight varying from 150 to 230 grams): 4 to 10 animals of each sex for each dose (from 4 to 200 mg/kg). The product was injected into the caudal vein.
3—Monkeys (Cynomolgus of a weight varying from 1.8 kg to 3.5 kg): 1 animal of each sex for each dose (8, 16 and 24 mg/kg). The product was injected into the saphenous vein or into the cephalic vein once a day during 7 days.
The assessment of the animals was made on the basis of clinical signs, biological analyses carried out on the blood and the urine and of histopathological examinations.

[2] = system: rats (Sprague Dawley), rabbits (New-Zealand albino), monkeys (Cynomolgus); format: in vivo; settings: intravenous, injection speeds up to 4 ml/min
Experimental: Male rats (Sprague Dawley): 6 to 12 animals for each dose (2×5, 2×10 and 2×20 mg/kg. The product was injected intravenously into the caudal vein.
Rabbits (New-Zealand albino rabbits): 5 animals received the dose of 5 mg/kg. The product was injected three times intravenously, once intra-arterially and once perivenously.
Monkeys (Cynomolgus, of a weight varying from 2.5 to 3.2 kg): 6 to 10 animals of each sex for each dose (1, 2, 5 and 6 mg/kg). The product was injected intravenously into the saphenous vein or into the cephalic vein, once each day during 14 days.
Monkeys (Cyonomolgus of a weight varying from 2.25 to 4.7 kg): 3 to 6 animals for each dose (2 and 5 mg/kg). The product was injected intravenously into the saphenous vein or into the cephalic vein.
The assessment of the animals was made on the basis of clinical signs, biological analyses carried out on the blood and on the urine, cardiovascular examinations and of histopathological examinations.

[3] = in vivo; cited from earlier work

## Pd-bacteriopheophorbide a [Pd-Bpheide a]
[1]
  tolerance in toxicity studies: well tolerated
[2]
  tolerance in toxicity studies: well tolerated
[3]
  cutaneous and ocular photosensitisation: no or little cutaneous photosensitisation
